The values that follow come from patent US12459922B2 (Gilead Sciences, Inc., priority 2022, dated 2025).

Like-named read-outs stand apart in the source and are kept apart here.

The experiment deals with endogenous cellular STAT1 (phosphorylated at Tyr701) in NCI-H1373 cells. Put plainly: Phospho-STAT1 (Tyr701) LANCE Ultra TR-FRET Detection Assay. It counts as cell-based. The conditions noted are these: phospho-STAT1 (Tyr701) induction, read-out: NH1373 pSTAT1 EC50. In general terms: In TR-FRET formats the signal depends on donor and acceptor labels being close together.

A word on the EC50: it is the concentration giving half of the maximal effect. With `CC[C@@H](CCCn1ccc2cc(-c3ncc(C(F)(F)F)c(N)n3)c(F)c(F)c2c1=O)Nc1cn[nH]c(=O)c1C(F)(F)F` [Example 348, (S)-6-(4-amino-5-(trifluoromethyl)pyrimidin-2-yl)-7,8-difluoro-2-(4-((6-oxo-5-(trifluoromethyl)-1,6-dihydropyridazin-4-yl)amino)hexyl)isoquinolin-1(2H)-one], the EC50 (Homo sapiens, NCI-H1373, 48 h) was found to be 6.47 nM. Same read-out and setting: the value for `Nc1nc(-c2cc3ncn(CCC[C@@H](Nc4cn[nH]c(=O)c4C(F)(F)F)C4CC4)c(=O)c3cc2F)ncc1Cl` [Example 461, (R)-7-(4-amino-5-chloropyrimidin-2-yl)-3-(4-cyclopropyl-4-((6-oxo-5-(trifluoromethyl)-1,6-dihydropyridazin-4-yl)amino)butyl)-6-fluoroquinazolin-4(3H)-one] was 15.1 nM; that for `CC(C)(CCCn1ccc2cc(-c3ncc(C(F)(F)F)c(N)n3)c(F)cc2c1=O)Nc1cn[nH]c(=O)c1C(F)(F)F` [Example 137, 6-(4-amino-5-(trifluoromethyl)pyrimidin-2-yl)-7-fluoro-2-(4-methyl-4-((6-oxo-5-(trifluoromethyl)-1,6-dihydropyridazin-4-yl)amino)pentyl)isoquinolin-1(2H)-one] was 50.6 nM. The same measure, in the same setting: the same measure for `CC(C)c1cnc(-c2cc3ccn(CCC[C@H](C)Nc4cn[nH]c(=O)c4C(F)(F)F)c(=O)c3cc2F)nc1N` [Example 325, (S)-6-(4-amino-5-isopropylpyrimidin-2-yl)-7-fluoro-2-(4-((6-oxo-5-(trifluoromethyl)-1,6-dihydropyridazin-4-yl)amino)pentyl)isoquinolin-1(2H)-one]: 10.6 nM. Same read-out and setting: the value for `Nc1nc(-c2ccc3c(=O)n(CCC[C@H](COC(F)F)Nc4cn[nH]c(=O)c4C(F)(F)F)ccc3n2)ccc1C(F)(F)F` [Example 405, (R)-2-(6-amino-5-(trifluoromethyl)pyridin-2-yl)-6-(5-(difluoromethoxy)-4-((6-oxo-5-(trifluoromethyl)-1,6-dihydropyridazin-4-yl)amino)pentyl)-1,6-naphthyridin-5(6H)-one] was 9.67 nM; that for `C[C@@H](CCCn1ccc2cc(-c3cn4ccnc4c(N)n3)c(F)cc2c1=O)Nc1cn[nH]c(=O)c1C(F)(F)F` [Example 332, (S)-6-(8-aminoimidazo[1,2-a]pyrazin-6-yl)-7-fluoro-2-(4-((6-oxo-5-(trifluoromethyl)-1,6-dihydropyridazin-4-yl)amino)pentyl)isoquinolin-1(2H)-one] was 8.92 nM; that for `O=c1[nH]ncc(N[C@H]2CCC[C@@H](Cn3cnc4cc(-c5nc6ccccn6n5)c(F)cc4c3=O)C2)c1C(F)(F)F` [Example 487] was 0.51 nM.

`O=c1[nH]ncc(N[C@H]2CCC[C@@H](Cn3ccc4cc(-c5ncc(C(F)(F)F)cn5)c(F)cc4c3=O)C2)c1C(F)(F)F` [Example 183, 7-fluoro-2-[[(1R,3S)-3-[[6-oxo-5-(trifluoromethyl)-1H-pyridazin-4-yl]amino]cyclohexyl]methyl]-6-[5-(trifluoromethyl)pyrimidin-2-yl]isoquinolin-1-one]: the EC50 (Homo sapiens, NCI-H1373, 48 h) stood at 6.39 nM. `C[C@@H](CCCn1ccc2cc(-c3ncc(C(F)(F)F)c(N)n3)c(F)cc2c1=O)Nc1cn[nH]c(=O)c1C(F)(F)F` [Example 100, 6-[4-amino-5-(trifluoromethyl)pyrimidin-2-yl]-7-fluoro-2-[(4S)-4-[[6-oxo-5-(trifluoromethyl)-1H-pyridazin-4-yl]amino]pentyl]isoquinolin-1-one]: for the setting “48 hours”, the 50% effective concentration (EC50) turned out to be 4.35 nM. On to `CC(C)(O)c1cnc(-c2cc3ccn(C[C@@H]4CCC[C@H](Nc5cn[nH]c(=O)c5C(F)(F)F)C4)c(=O)c3cc2F)nc1` [Example 284, 7-fluoro-6-(5-(2-hydroxypropan-2-yl)pyrimidin-2-yl)-2-(((1R,3S)-3-((6-oxo-5-(trifluoromethyl)-1,6-dihydropyridazin-4-yl)amino)cyclohexyl)methyl)isoquinolin-1(2H)-one], for which, for the setting “Homo sapiens, NCI-H1373, 48 h”, the 50% effective concentration (EC50) was determined as 51.7 nM. On the same count and under the same terms, the value for `C[C@@H](CCCn1cnc2cc(-c3ncc(C(F)(F)F)c(N4CCC4)n3)c(F)cc2c1=O)Nc1cn[nH]c(=O)c1C(F)(F)F` [Example 189, (S)-7-(4-(azetidin-1-yl)-5-(trifluoromethyl)pyrimidin-2-yl)-6-fluoro-3-(4-((6-oxo-5-(trifluoromethyl)-1,6-dihydropyridazin-4-yl)amino)pentyl)quinazolin-4(3H)-one] was 14.7 nM; that for `C[C@@H](CCCn1ccc2cc(-c3ncc([N+](=O)[O-])c(N)n3)c(F)cc2c1=O)Nc1cn[nH]c(=O)c1C(F)(F)F` [Example 111, 6-(4-amino-5-nitro-pyrimidin-2-yl)-7-fluoro-2-[(4S)-4-[[6-oxo-5-(trifluoromethyl)-1H-pyridazin-4-yl]amino]pentyl]isoquinolin-1-one] was 6.67 nM. Turning to `O=c1[nH]ncc(N[C@H]2CCC[C@@H](Cn3ccc4nc(-c5ccc(C(F)(F)F)cn5)ccc4c3=O)C2)c1C(F)(F)F` [Example 273, 6-(((1R,3S)-3-((6-oxo-5-(trifluoromethyl)-1,6-dihydropyridazin-4-yl)amino)cyclohexyl)methyl)-2-(5-(trifluoromethyl)pyridin-2-yl)-1,6-naphthyridin-5(6H)-one], for the setting “Homo sapiens, NCI-H1373, 48 h”, the EC50 was determined as 10000 nM. On the same count and under the same terms, the value for `O=c1[nH]ncc(N[C@H]2CCC[C@@H](Cn3ccc4cc(-c5ccc(C(F)(F)CO)cn5)c(F)cc4c3=O)C2)c1C(F)(F)F` [Example 279, 6-(5-(1,1-difluoro-2-hydroxyethyl)pyridin-2-yl)-7-fluoro-2-(((1R,3S)-3-((6-oxo-5-(trifluoromethyl)-1,6-dihydropyridazin-4-yl)amino)cyclohexyl)methyl)isoquinolin-1(2H)-one] was 15.5 nM; that for `C[C@@H](CCCn1ccc2cc(-c3ncc4ccsc4n3)c(F)cc2c1=O)Nc1cn[nH]c(=O)c1C(F)(F)F` [Example 292, (S)-7-fluoro-2-(4-((6-oxo-5-(trifluoromethyl)-1,6-dihydropyridazin-4-yl)amino)pentyl)-6-(thieno[2,3-d]pyrimidin-2-yl)isoquinolin-1(2H)-one] was 16 nM; that for `CCOc1ccc(-c2cc3ccn(CCC[C@H](C)Nc4cn[nH]c(=O)c4C(F)(F)F)c(=O)c3cc2F)nc1N` [Example 193, (S)-6-(6-amino-5-ethoxypyridin-2-yl)-7-fluoro-2-(4-((6-oxo-5-(trifluoromethyl)-1,6-dihydropyridazin-4-yl)amino)pentyl)isoquinolin-1(2H)-one] was 22.3 nM. The same measure, in the same setting: the same measure for `O=c1[nH]ncc(N[C@H](CCCn2ccc3cc(-c4cnc(C(F)(F)F)cn4)c(F)cc3c2=O)COC(F)F)c1C(F)(F)F` [Example 417, (R)-2-(5-(difluoromethoxy)-4-((6-oxo-5-(trifluoromethyl)-1,6-dihydropyridazin-4-yl)amino)pentyl)-7-fluoro-6-(5-(trifluoromethyl)pyrazin-2-yl)isoquinolin-1(2H)-one]: 2.28 nM; for `C[C@@H](CCCn1ccc2cc(-c3ncc(-c4ccccc4F)cn3)c(F)cc2c1=O)Nc1cn[nH]c(=O)c1C(F)(F)F` [Example 336, (S)-7-fluoro-6-(5-(2-fluorophenyl)pyrimidin-2-yl)-2-(4-((6-oxo-5-(trifluoromethyl)-1,6-dihydropyridazin-4-yl)amino)pentyl)isoquinolin-1(2H)-one]: 95.1 nM. Still for that read-out and setting: the same measure for `Nc1nc(-c2cc3ccn(C[C@@H]4CCC[C@H](Nc5cn[nH]c(=O)c5C(F)(F)F)C4)c(=O)c3cc2F)ccc1C(F)F` [Example 269, 6-(6-amino-5-(difluoromethyl)pyridin-2-yl)-7-fluoro-2-(((1R,3S)-3-((6-oxo-5-(trifluoromethyl)-1,6-dihydropyridazin-4-yl)amino)cyclohexyl)methyl)isoquinolin-1(2H)-one]: 54.3 nM; for `O=c1[nH]ncc(N[C@H](CCCn2cnc3cc(-c4ncc(Cl)cn4)c(F)cc3c2=O)COC(F)F)c1C(F)(F)F` [Example 394, (R)-7-(5-chloropyrimidin-2-yl)-3-(5-(difluoromethoxy)-4-((6-oxo-5-(trifluoromethyl)-1,6-dihydropyridazin-4-yl)amino)pentyl)-6-fluoroquinazolin-4(3H)-one]: 1.22 nM; for `O=c1[nH]ncc(N[C@H](CCCn2ccc3cc(-c4ncc(C(F)F)cn4)c(F)c(F)c3c2=O)COC(F)F)c1C(F)(F)F` [Example 388, (R)-2-(5-(difluoromethoxy)-4-((6-oxo-5-(trifluoromethyl)-1,6-dihydropyridazin-4-yl)amino)pentyl)-6-(5-(difluoromethyl)pyrimidin-2-yl)-7,8-difluoroisoquinolin-1(2H)-one]: 2.74 nM. As to `C[C@H](CCCn1ccc2cc(-c3ccc(C(F)(F)F)cn3)ccc2c1=O)Nc1cn[nH]c(=O)c1C(F)(F)F` (single isomer, unassigned) [Example 2], the EC50 (Homo sapiens, NCI-H1373, 48 h) came out at 10000 nM. On the same count and under the same terms, the same measure for `Nc1nc(-c2cc3ccn(CCC[C@H](COC(F)F)Nc4cn[nH]c(=O)c4C(F)(F)F)c(=O)c3c(F)c2F)cnc1C(F)(F)F` [Example 418, (R)-6-(6-amino-5-(trifluoromethyl)pyrazin-2-yl)-2-(5-(difluoromethoxy)-4-((6-oxo-5-(trifluoromethyl)-1,6-dihydropyridazin-4-yl)amino)pentyl)-7,8-difluoroisoquinolin-1(2H)-one]: 4.58 nM.

For `Nc1nc(-c2cc3ccn(C[C@@H]4CCC[C@H](Nc5cn[nH]c(=O)c5C(F)(F)F)C4)c(=O)c3c(F)c2F)ncc1OC(F)F` [Example 245, 6-(4-amino-5-(difluoromethoxy)pyrimidin-2-yl)-7,8-difluoro-2-(((1R,3S)-3-((6-oxo-5-(trifluoromethyl)-1,6-dihydropyridazin-4-yl)amino)cyclohexyl)methyl)isoquinolin-1(2H)-one], the 50% effective concentration (EC50) (Homo sapiens, NCI-H1373, 48 h) is 8.13 nM. Same read-out and setting: the same measure for `C[C@@H](CCCn1ccc2cc(-c3ncc(C(F)(F)F)cc3Cl)c(F)cc2c1=O)Nc1cn[nH]c(=O)c1C(F)(F)F` [Example 326, (S)-6-(3-chloro-5-(trifluoromethyl)pyridin-2-yl)-7-fluoro-2-(4-((6-oxo-5-(trifluoromethyl)-1,6-dihydropyridazin-4-yl)amino)pentyl)isoquinolin-1(2H)-one]: 113 nM.
